Test system: nitrification of ammonium nitrogen
Test: Suppression of nitrification of ammonium nitrogen in soil
Conditions: 27° C.
Protocol: A sufficient volume of water was added to 20 g of the soil in a wide-mouth, screw-cap, 4-ounce, glass bottle, such that the moisture content of the mixture was made equal to the 1/3 bar tension value for that soil. The mixture was thoroughly mixed before sealing. […] Acetone slows the rate of soil nitrification and its concentration must be carefully controlled. Single samples of each test chemical were incubated for two weeks at 27° C.
The experiment comprised the following types of samples:
The soil samples were analyzed as follows: Sufficient ammonium sulfate extracting solution was added to the sample, such that the total volume of added water was 50 ml (included water added during sample preparation). The capped mixture was shaken 10 minutes to solubilize nitrate and the soil particulates were allowed to settle. The nitrate concentration in the water phase was determined with a nitrate-specific ion electrode such as Orion Model 93-07.
The non-nitrate nitrogen remaining (% NH4 -N remaining) in the soil after two weeks (performance value) was calculated as follows: [formula]

SMILES | % NH4-N Remaining After 2 Weeks Incubation (0.06 ppm) [%] | % NH4-N Remaining After 2 Weeks Incubation (0.25 ppm) [%] | % NH4-N Remaining After 2 Weeks Incubation (1 ppm) [%] | % NH4-N Remaining After 2 Weeks Incubation (4 ppm) [%] | % NH4-N Remaining After 2 Weeks Incubation (0.01 ppm) [%] | % NH4-N Remaining After 2 Weeks Incubation (0.1 ppm) [%] | % NH4-N Remaining After 2 Weeks Incubation (10 ppm) [%] | other results
CSc1cccc(C)c1NS(=O)(=O)c1nc2nc(C)ccn2n1 [Compound 150] | 83 | 74 | 91 | 93 | – | – | – | –
Cc1cc(C)n2nc(S(=O)(=O)Nc3cc(Cl)cc(Cl)c3)nc2n1 [Compound 24] | – | – | 65 | – | 0 | 28 | 83 | –
Cc1c(C(=O)O)cnc2nc(S(=O)(=O)Nc3c(Cl)cccc3Cl)nn12 [Compound 224] | 1 | 0 | 27 | 63 | – | – | – | –
Cc1ccn2nc(S(=O)(=O)Nc3ccccc3[S+]([O-])C(F)(F)C(F)F)nc2n1 (stereo not shown) [Compound 149] | – | – | – | – | – | – | 62 | % NH4-N Remaining After 2 Weeks Incubation (0.6 ppm): 0%; % NH4-N Remaining After 2 Weeks Incubation (1.25 ppm): 0%; % NH4-N Remaining After 2 Weeks Incubation (2.5 ppm): 5%; % NH4-N Remaining After 2 Weeks Incubation (5 ppm): 26%
Cc1cc(C)n2nc(S(=O)(=O)Nc3c(F)cccc3C(=O)O)nc2n1 [Compound 27] | – | – | 0 | – | 0 | 0 | 35 | –
Cc1ccn2nc(S(=O)(=O)Nc3c(C)cccc3Br)nc2n1 [Compound 148] | – | – | – | – | – | – | 93 | % NH4-N Remaining After 2 Weeks Incubation (0.6 ppm): 69%; % NH4-N Remaining After 2 Weeks Incubation (1.25 ppm): 75%; % NH4-N Remaining After 2 Weeks Incubation (2.5 ppm): 81%; % NH4-N Remaining After 2 Weeks Incubation (5 ppm): 89%
Cc1cc(C)n2nc(S(=O)(=O)Nc3ccc(Cl)cc3Cl)nc2n1 [Compound 20] | 0 | 0 | 8 | – | – | – | – | % NH4-N Remaining After 2 Weeks Incubation (0.125 ppm): 0%; % NH4-N Remaining After 2 Weeks Incubation (0.5 ppm): 5%
Cc1nc2nc(S(=O)(=O)Nc3c(Cl)cccc3Cl)nn2c(C)c1Cl [Compound 200] | 0 | 31 | 50 | 60 | – | – | – | –
Cc1cc(C)n2nc(S(=O)(=O)Nc3ccc(Cl)cc3Br)nc2n1 [Compound 40] | – | – | – | – | – | – | 66 | % NH4-N Remaining After 2 Weeks Incubation (0.6 ppm): 0%; % NH4-N Remaining After 2 Weeks Incubation (1.25 ppm): 0%; % NH4-N Remaining After 2 Weeks Incubation (2.5 ppm): 40%; % NH4-N Remaining After 2 Weeks Incubation (5 ppm): 17%
Cc1cc(C)n2nc(S(=O)(=O)Nc3ccc(Cl)cc3)nc2n1 [Compound 18] | – | – | 5 | – | 0 | 0 | 50 | –
Cc1cc(C)n2nc(S(=O)(=O)Nc3c(C)cccc3C(N)=O)nc2n1 [Compound 61] | – | – | – | – | – | – | 100 | % NH4-N Remaining After 2 Weeks Incubation (0.6 ppm): 20%; % NH4-N Remaining After 2 Weeks Incubation (1.25 ppm): 34%; % NH4-N Remaining After 2 Weeks Incubation (2.5 ppm): 65%; % NH4-N Remaining After 2 Weeks Incubation (5 ppm): 89%
CCOc1cnc2nc(S(=O)(=O)Nc3c(C)cccc3Cl)nn2c1 [Compound 202] | 0 | 0 | 0 | 32 | – | – | – | –
Cc1cc(C)n2nc(S(=O)(=O)Nc3ccccc3SC(C)(C)C)nc2n1 [Compound 80] | 0 | 0 | 20 | 43 | – | – | – | –
Cc1cc(Cl)c(NS(=O)(=O)c2nc3nc(C)cc(C)n3n2)c(Cl)c1 [Compound 47] | – | – | 73 | – | 0 | 40 | 92 | –
Cc1cc(C)n2nc(S(=O)(=O)Nc3ccncc3)nc2n1 [Compound 253] | – | – | 0 | – | 0 | 5 | 17 | –
Cc1cc(C)n2nc(S(=O)(=O)Nc3c(C)cccc3Br)nc2n1 [Compound 58] | 92 | 48 | 58 | 80 | – | – | – | –
Cc1cc(C)n2nc(S(=O)(=O)Nc3ccccc3SC(F)(F)F)nc2n1 [Compound 55] | 19 | 91 | 65 | 84 | – | – | – | –
Cc1cc(C)n2nc(S(=O)(=O)Nc3ccccc3S(=O)(=O)c3ccccc3)nc2n1 [Compound 96] | – | – | – | – | – | – | 100 | % NH4-N Remaining After 2 Weeks Incubation (0.6 ppm): 0%; % NH4-N Remaining After 2 Weeks Incubation (1.25 ppm): 0%; % NH4-N Remaining After 2 Weeks Incubation (2.5 ppm): 7%; % NH4-N Remaining After 2 Weeks Incubation (5 ppm): 42%
Cc1cc(C)n2nc(S(=O)(=O)Nc3cc(C(F)(F)F)ccc3S(=O)(=O)N(C)C)nc2n1 [Compound 28] | – | – | 42 | – | 0 | 5 | 66 | –
Cc1cc(C)n2nc(S(=O)(=O)Nc3c(Cl)ccc(C)c3Cl)nc2n1 [Compound 46] | – | – | 88 | – | 50 | 71 | 94 | –
Cc1cc(C)n2nc(S(=O)(=O)Nc3ncccc3Cl)nc2n1 [Compound 252] | – | – | 38 | – | 0 | 0 | 82 | –
COC(=O)c1cc2ccccc2cc1NS(=O)(=O)c1nc2nc(C)cc(C)n2n1 [Compound 245] | 0 | 0 | 0 | 30 | – | – | – | –
Cc1cc(C)n2nc(S(=O)(=O)Nc3c(C)cccc3C(=O)OCCN(C)C)nc2n1 [Compound 73] | 26 | 47 | 41 | 62 | – | – | – | –
Cc1cc(C)n2nc(S(=O)(=O)Nc3ncc(Cl)cc3Cl)nc2n1 [Compound 251] | – | – | 0 | – | 0 | 0 | 29 | –
Cc1cc(C)n2nc(S(=O)(=O)Nc3ccccc3[S+]([O-])C(F)(F)C(F)F)nc2n1 (stereo not shown) [Compound 60] | – | – | – | – | – | – | 58 | % NH4-N Remaining After 2 Weeks Incubation (0.6 ppm): 0%; % NH4-N Remaining After 2 Weeks Incubation (1.25 ppm): 0%; % NH4-N Remaining After 2 Weeks Incubation (2.5 ppm): 8%; % NH4-N Remaining After 2 Weeks Incubation (5 ppm): 41%
Cc1cc(C)n2nc(S(=O)(=O)Nc3cccc(Cl)c3C)nc2n1 [Compound 68] | 0 | 20 | 16 | 57 | – | – | – | –
O=S(=O)(Nc1ccccc1)c1nc2ncc(Cl)cn2n1 [Compound 120] | 71 | 46 | 63 | 87 | – | – | – | –

Source: patent publication US4740233A, “Substituted 1,2,4-triazolo[1,5-a]-pyrimidine-2-sulfonamides and compositions and methods of controlling undesired vegetation and suppressing the nitrification of ammonium nitrogen in soil” (The Dow Chemical Company, priority 1986, dated 1988)
